# Measured values published in patent publication US20250261639A1, “ZEALACTONE DERIVATIVES AS PLANT GROWTH REGULATORS” (SYNGENTA CROP PROTECTION AG, priority 2020, published 2025).
# Assays:
# [1] = test system: Corn leaf discs (variety Multitop); experiment: Dark induced senescence of corn leaf; conditions: Zea mays, foliar, 192 h; leaf discs in the dark, 23° C., 75% humidity, 8 days, 0.5% DMSO; read-out: IC50 (concentration at which 50% senescence was achieved)
# Method: It is known that strigolactones regulate (accelerate) leaf senescence, potentially through D14 receptor signaling. It is also known that senescence is an important process allowing reallocation of nutrients. Compounds of formula (I) were tested in a corn leaf dark induced senescence assay and compared to untreated control.
# Corn plants of variety Multitop were grown in a greenhouse with relative 75% humidity and at 23-25° C. for 6 weeks. 1.4 cm diameter leaf discs were placed into 24-well plates containing a test compounds in a concentration gradient (100 μM-0.0001 μM) at a final concentration of 0.5% DMSO. Each concentration was tested in 12 replicates. Plates were sealed with seal foil. The foil was pierced to provide gas exchange in each well. The plates were placed into the completely dark climatic chamber. Plates were incubated in the chamber with 75% humidity and at 23° C. for 8 days. On days 0, 5, 6, 7 and 8 photographs were taken of each plate, and image analysis conducted with a macro developed using the ImageJ software. The image analysis was used to determine the concentration at which 50% senescence was achieved (IC50). The lower the value, the higher senescence induction potency.
# [2] = test system: Corn seeds (var. NK Falkone); experiment: Corn seed germination under cold stress conditions; assay type: in vivo; conditions: Zea mays, 15° C., 60% Relative Humidity; for change in vivo at 250 µM: read-out: increase of the slope of the curve at Tso (uniformity of germination) compared to untreated control; for percent reduction of T50 germination time vs untreated control at 250 µM: read-out: reduction of the Tso value (time taken for 50% germination; speed of germination) in comparison with untreated control
# Method: Method: Corn seeds (var. NK Falkone, Syngenta Seeds SAS, St. Sauveur, France) were sorted by size using a sieve to eliminate round seeds. The corn seeds were placed in 24 well plates (1 seed per well, each plate was considered as one experimental unit or replicate). Germination was initiated by the addition of 250 μL of distilled water containing 0.5% DMSO per well (and the tested the substance at the given concentration). 8 replicates (i.e., 8 plates) were used for each treatment characterization. Plates were sealed using seal foil (Polyolefin Art. Nr. 900320) from HJ-BIOANALYTIK. All plates were placed in a climatic chamber at 15° C. with 60% Relative Humidity. The experiment was laid out in a completely randomized design.
# Germination was followed over time by taking photographs at different time points. Image analysis was performed automatically with a macro which was developed using the Image J software. A kinetic analysis of germination was carried out by fitting a trend curve. Three parameters were calculated from the trend curve: the Tso (time taken for 50% germination; speed of germination); the slope of the curve (the uniformity of germination) and the plateau (the total percentage of germinated seeds).
# The treatments with a given compound were performed at 4 concentrations 2, 10, 50, and 250 μM.
IC50 [1] [nM],SMILES,change in vivo at 250 µM [2] [%],percent reduction of T50 germination time vs untreated control at 250 µM [2] [%]
< 3000,"COC(=O)C(/C=C/C(C)(C)C(=O)N(C)C)=C/OC1C=C(C)C(=O)O1 (centres unmarked) [Compound P-20, methyl (E,2E)-6-(dimethylamino)-5,5-dimethyl-2-[(4-methyl-5-oxo-2H-furan-2-yl)oxymethylene]-6-oxo-hex-3-enoate]",,
< 3000,"C=C(C)C1(/C=C/C(=C\OC2C=C(C)C(=O)O2)C(=O)OC)C(=O)CC1(C)C (centres unmarked) [Compound P-15, methyl (E,2E)-4-(1-isopropenyl-2,2-dimethyl-4-oxo-cyclobutyl)-2-[(4-methyl-5-oxo-2H-furan-2-yl)oxymethylene]but-3-enoate]",> 50,> 5
< 3000,"COC(=O)C(/C=C/C1(C)CC1)=C/OC1C=C(C)C(=O)O1 (centres unmarked) [Compound P-7, methyl (E,2E)-4-(1-methylcyclopropyl)-2-[(4-methyl-5-oxo-2H-furan-2-yl)oxymethylene]but-3-enoate]",,
< 3000,"COC(=O)C(/C=C/C1(C)CCCC1)=C/OC1C=C(C)C(=O)O1 (centres unmarked) [Compound P-6, methyl (E,2E)-4-(1-methylcyclopentyl)-2-[(4-methyl-5-oxo-2H-furan-2-yl)oxymethylene]but-3-enoate]",> 50,> 5
< 3000,"COC(=O)C(/C=C/C(C)(C)C#N)=C/OC1C=C(C)C(=O)O1 (centres unmarked) [Compound P-16, methyl (E,2E)-5-cyano-5-methyl-2-[(4-methyl-5-oxo-2H-furan-2-yl)oxymethylene]hex-3-enoate]",,
< 3000,"COC(=O)C(/C=C/C(C)(C)N(C)C(C)=O)=C/OC1C=C(C)C(=O)O1 (centres unmarked) [Compound P-17, methyl (E,2E)-5-[acetyl(methyl)amino]-5-methyl-2-[(4-methyl-5-oxo-2H-furan-2-yl)oxymethylene]hex-3-enoate]",,
< 3000,"COC(=O)C(/C=C/C(C)(C)C(=O)OC)=C/OC1C=C(C)C(=O)O1 (centres unmarked) [Compound P-19, dimethyl (E,5E)-2,2-dimethyl-5-[(4-methyl-5-oxo-2H-furan-2-yl)oxymethylene]hex-3-enedioate]",> 50,> 5
< 3000,"COC(=O)C(/C=C/C12CC3CC(CC(C3)C1)C2)=C/OC1C=C(C)C(=O)O1 (centres unmarked) [Compound P-4, methyl (E,2E)-4-(1-adamantyl)-2-[(4-methyl-5-oxo-2H-furan-2-yl)oxymethylene]but-3-enoate]",,> 5
< 3000,"COC(=O)C(/C=C/C1CCC(F)(F)CC1)=C/OC1C=C(C)C(=O)O1 (centres unmarked) [Compound P-2, methyl (E,2E)-4-(4,4-difluorocyclohexyl)-2-[(4-methyl-5-oxo-2H-furan-2-yl)oxymethylene]but-3-enoate]",> 50,> 5
< 3000,"COC(=O)/C=C/C(=C\OC1C=C(C)C(=O)O1)C(=O)OC (centres unmarked) [Compound P-8, dimethyl (E,4E)-4-[(4-methyl-5-oxo-2H-furan-2-yl)oxymethylene]pent-2-enedioate]",> 50,> 5
,"COC(=O)C(/C=C/C1CCCCC1)=C/OC1OC(=O)C(C)=C1C (centres unmarked) [Compound P-3, methyl (E,2E)-4-cyclohexyl-2-[(3,4-dimethyl-5-oxo-2H-furan-2-yl)oxymethylene]but-3-enoate]",> 50,> 5
,"COC(=O)/C(C=C(C)C)=C/OC1C=C(C)C(=O)O1 (centres unmarked) [Compound P-9, methyl (2E)-4-methyl-2-[(4-methyl-5-oxo-2H-furan-2-yl)oxymethylene]pent-3-enoate]",> 50,> 5
< 3000,"COC(=O)C(/C=C/C(C)(C)OC)=C/OC1C=C(C)C(=O)O1 (centres unmarked) [Compound P-12, methyl (E,2E)-5-methoxy-5-methyl-2-[(4-methyl-5-oxo-2H-furan-2-yl)oxymethylene]hex-3-enoate]",> 50,
,"COC(=O)C(/C=C/C(C)(C)C)=C/OC1OC(=O)C(C)=C1C (centres unmarked) [Compound P-10, methyl (E,2E)-2-[(3,4-dimethyl-5-oxo-2H-furan-2-yl)oxymethylene]-5,5-dimethyl-hex-3-enoate]",> 50,> 5
